Experiments:
[1] = target: T1, hRIPK1 (aa 1-375) fusion protein (Homo sapiens, UniProt Q13546); experiment: ADP-Glo kinase assay: catalytic activity of RIPK1 (autophosphorylation, conversion of ATP to ADP); format: biochemical
T1 construct: hRIPK1 (aa 1-375) fusion protein
T1 sequence (Q13546 1-375): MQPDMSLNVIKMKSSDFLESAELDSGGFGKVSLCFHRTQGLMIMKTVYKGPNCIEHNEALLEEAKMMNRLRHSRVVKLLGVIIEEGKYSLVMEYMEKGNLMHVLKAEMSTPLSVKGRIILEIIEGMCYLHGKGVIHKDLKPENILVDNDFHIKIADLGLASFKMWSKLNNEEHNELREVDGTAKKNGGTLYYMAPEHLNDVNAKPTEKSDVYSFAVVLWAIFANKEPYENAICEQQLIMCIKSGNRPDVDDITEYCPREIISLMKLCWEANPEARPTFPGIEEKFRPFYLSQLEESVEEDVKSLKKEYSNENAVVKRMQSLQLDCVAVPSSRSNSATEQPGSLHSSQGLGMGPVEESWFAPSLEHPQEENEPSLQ
How it was run: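 hRIPK1 (aa 1-375) fusion protein (3.6 μg/ml final) was preincubated 30 min at rt with compound (33300-1.69 nM, 1% DMSO), then 50 μM ATP was added for 240 min at rt. ADP from autophosphorylation was measured by ADP-Glo luminescence and curves fitted by nonlinear regression.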

[2] = test system: U937 cells; experiment: Cellular assay in U937 cells: activity of RIPK1 inhibitors on TNFα/zVAD.fmk-induced cell death (necroptosis), CellTiter 96 AQueous (MTS) readout; format: cell-based; settings: Homo sapiens, U-937
How it was run: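 Necroptosis was measured by viable-cell MTS reduction (4 h, absorbance 490 nm) after overnight (18–24 h) 37° C culture. Cell suspensions of U937 cells carried TNFα (100 ng/ml) plus zVAD.fmk (50 μM) before compound was added. A 10-point curve (10 μM–0.26 nM or 1 μM–0.07 nM) was run in duplicate, normalised to the control lacking TNFα/zVAD.fmk.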

IC50 [1] [nM]	Structure (SMILES)	IC50 [2] [nM]
42	Cc1cc(C[C@H]2CC[C@H](C(=O)N3OCC[C@H]3c3cc(F)cc(F)c3)CC2)ncn1 [compound 313, trans-[(3S)-3-(3,5-difluorophenyl)isoxazolidin-2-yl]-[4-[(6-methylpyrimidin-4-yl)methyl]cyclohexyl]methanone]	40
10	NC(=O)c1cc(C[C@H]2CC[C@H](C(=O)N3OCC[C@H]3c3ccc(F)cc3)CC2)ccc1F [compound 191, trans-2-fluoro-5-[[4-[(3S)-3-(4-fluorophenyl)isoxazolidine-2-carbonyl]cyclohexyl]methyl]benzamide]	9
125	Cc1nc([C@@H]2CCON2C(=O)[C@H]2CC[C@H](Cn3cc4ccc(C#N)cc4n3)CC2)cs1 [compound 203, trans-2-[[4-[(3S)-3-(2-methylthiazol-4-yl)isoxazolidine-2-carbonyl]cyclohexyl]methyl]indazole-6-carbonitrile]	432
44	Cc1ccc([C@@H]2CCON2C(=O)[C@H]2CC[C@H](Cc3cnc4cnn(C)c4c3)CC2)cn1 [compound 329, trans-[4-[(1-methylpyrazolo[4,3-b]pyridin-6-yl)methyl]cyclohexyl]-[(3S)-3-(6-methylpyridin-3-yl)-1,2-oxazolidin-2-yl]methanone]	82
46	Cn1cc(C[C@H]2CC[C@H](C(=O)N3OCC[C@H]3c3cnccn3)CC2)cn1 [compound 151, trans-[4-[(1-methylpyrazol-4-yl)methyl]cyclohexyl]-[(3S)-3-pyrazin-2-ylisoxazolidin-2-yl]methanone]	214
32	Cc1ncc(F)cc1C[C@H]1CC[C@H](C(=O)N2OCC[C@H]2c2ccc(F)cc2)CC1 [compound 179, trans-[4-[(5-fluoro-2-methyl-3-pyridyl)methyl]cyclohexyl]-[(3S)-3-(4-fluorophenyl)isoxazolidin-2-yl]methanone]	5
13	N#Cc1cc(F)cc([C@@H]2CCON2C(=O)[C@H]2CC[C@H](Cn3ccc4c(F)cc(C#N)cc43)CC2)c1 [compound 46, trans-1-((4-((S)-3-(3-cyano-5-fluorophenyl)isoxazolidine-2-carbonyl)cyclohexyl)methyl)-4-fluoro-1H-indole-6-carbonitrile]	6
62	COc1cncc([C@@H]2CCON2C(=O)[C@H]2CC[C@H](Cn3ncc4ccc(C(N)=O)cc43)CC2)n1 [Compound 201, trans-1-[[4-[(3S)-3-(6-methoxypyrazin-2-yl)isoxazolidine-2-carbonyl]cyclohexyl]methyl]indazole-6-carboxamide]	190
27	Cc1c2ccccc2nn1C[C@H]1CC[C@H](C(=O)N2OCC[C@H]2c2cc(F)cc(C#N)c2)CC1 [compound 63, trans-3-fluoro-5-((S)-2-(4-((3-methyl-2H-indazol-2-yl)methyl)cyclohexane-1-carbonyl)isoxazolidin-3-yl)benzonitrile]	55

The remaining lines, values behind:

Structure (SMILES)	IC50 [1] [nM]	IC50 [2] [nM]
Cc1ccc([C@@H]2CCON2C(=O)[C@H]2CC[C@H](Cc3cc(F)c4nnc(C)n4c3)CC2)cn1 [compound 364, trans-[4-(8-Fluoro-3-methyl-[1,2,4]triazolo[4,3-a]pyridin-6-ylmethyl)-cyclohexyl]-[(S)-3-(6-methyl-pyridin-3-yl)-isoxazolidin-2-yl]-methanone]	234	491
Cc1nn(C[C@H]2CC[C@H](C(=O)N3OCC[C@H]3c3cc(F)cc(F)c3)CC2)c2cc(C#N)c(F)cc12 [compound 84]	13	4
Cc1cc2nnc(C)n2cc1C[C@H]1CC[C@H](C(=O)N2OCC[C@H]2c2cccc(F)c2)CC1 [compound 317, trans-[4-[(3,7-dimethyl-[1,2,4]triazolo[4,3-a]pyridin-6-yl)methyl]cyclohexyl]-[(3S)-3-(3-fluorophenyl)isoxazolidin-2-yl]methanone]	7	2
N#Cc1cncc([C@@H]2CCON2C(=O)[C@H]2CC[C@H](Cn3cc(C#N)ccc3=O)CC2)c1 [compound 122, trans-1-[[4-[(3S)-3-(5-cyano-3-pyridyl)isoxazolidine-2-carbonyl]cyclohexyl]methyl]-6-oxo-pyridine-3-carbonitrile]	125	797
O=C([C@H]1CC[C@H](Cc2cc(F)cc(CO)c2)CC1)N1OCC[C@H]1c1cnccn1 [compound 259, trans-[4-[[3-fluoro-5-(hydroxymethyl)phenyl]methyl]cyclohexyl]-[(3S)-3-pyrazin-2-ylisoxazolidin-2-yl]methanone]	8	2
Cc1nc2ccc(C[C@H]3CC[C@H](C(=O)N4OCC[C@H]4c4ccc(F)cc4)CC3)cn2n1 [compound 260, trans-[(3S)-3-(4-fluorophenyl)isoxazolidin-2-yl]-[4-[(2-methyl-[1,2,4]triazolo[1,5-a]pyridin-6-yl)methyl]cyclohexyl]methanone]	32	25
Cc1cc(C)n(-c2cc(C[C@H]3CC[C@H](C(=O)N4OCC[C@H]4c4cc(F)cc(F)c4)CC3)ncn2)n1 [compound 125, trans-[(3S)-3-(3,5-difluorophenyl)isoxazolidin-2-yl]-[4-[[6-(3,5-dimethylpyrazol-1-yl)pyrimidin-4-yl]methyl]cyclohexyl]methanone]	9	16
N#Cc1cc(F)cc([C@@H]2CCON2C(=O)[C@H]2CC[C@H](Cn3ccc4ccncc43)CC2)c1 [compound 16, trans-3-((S)-2-(4-((1H-pyrrolo[2,3-c]pyridin-1-yl)methyl)cyclohexane-1-carbonyl)isoxazolidin-3-yl)-5-fluorobenzonitrile]	39	6
Cc1ccc([C@@H]2CCON2C(=O)[C@H]2CC[C@H](Cc3cc(C)ncc3F)CC2)cn1 [compound 386, trans-[4-[(5-fluoro-2-methylpyridin-4-yl)methyl]cyclohexyl]-[(3S)-3-(6-methylpyridin-3-yl)-1,2-oxazolidin-2-yl]methanone]	25	13
N#Cc1cc(F)cc([C@@H]2CCON2C(=O)[C@H]2CC[C@H](Cc3ccc4c(c3)C(=O)NC4)CC2)c1 [compound 144, trans-3-fluoro-5-[(3S)-2-[4-[(3-oxoisoindolin-5-yl)methyl]cyclohexanecarbonyl]isoxazolidin-3-yl]benzonitrile]	22	3
N#Cc1cc(F)cc([C@@H]2CCON2C(=O)[C@H]2CC[C@H](Cn3ccc4ncc(Cl)cc43)CC2)c1 [compound 19, trans-3-((S)-2-(4-((6-chloro-1H-pyrrolo[3,2-b]pyridin-1-yl)methyl)cyclohexane-1-carbonyl)isoxazolidin-3-yl)-5-fluorobenzonitrile]	28	5
Cc1nccn1-c1cc(F)cc(C[C@H]2CC[C@H](C(=O)N3OCC[C@H]3c3cncc(C#N)c3)CC2)c1 [compound 210, trans-5-[(3S)-2-[4-[[3-fluoro-5-(2-methylimidazol-1-yl)phenyl]methyl]cyclohexanecarbonyl]isoxazolidin-3-yl]pyridine-3-carbonitrile]	17	25
Cc1nc2cc(C[C@H]3CC[C@H](C(=O)N4OCC[C@H]4c4cccc(C#N)c4)CC3)ccn2n1 [compound 1, trans-3-[(3S)-2-[4-[(2-methyl-[1,2,4]triazolo[1,5-a]pyridin-7-yl)methyl]cyclohexanecarbonyl]isoxazolidin-3-yl]benzonitrile]	21	29

Source: US20260158009A1 (GENZYME CORPORATION, priority 2023, published 2026)
